This data set is described as follows: Solubility of isolated product in solvents. The format is physicochemical.

Regarding `OCCOCCOc1cc(I)c(OCCOCCO)cc1I`, the Solubility in hexanes entry (hexanes) is reported as “Not very soluble”. In addition, the Solubility in water entry (water) was “Not very soluble”.
`Cc1ccc(S(=O)(=O)OCCOCCOc2cc(I)c(OCCOCCOS(=O)(=O)c3ccc(C)cc3)cc2I)cc1`: the “Solubility in DMF” value (DMF) was “soluble”. The Solubility in acetone entry (acetone) is listed as “soluble”.

The record behind these values is US7521232B2, “Emissive species for clinical imaging” (ICx Nomadics, Inc., priority 2006, dated 2009).
